In assay [1] the test system is hypercalcemia induced by administration of parathyroid hormone (PTH). The assay can be described thus: Inhibitory effect on hypercalcemia induced by PTH in rats (serum Ca++). Type of assay: in vivo, male Wistar rats. The following applies: mean ± S.E. As to the method:
Rats of hypercalcemia induced by administration of parathyroid hormone (hereinafter referred to as "PTH") were used, and the decrement of the serum calcium amount by administration of the compound was measured.
30 μg/kg of human 1-34 PTH (manufactured by Peptide Laboratory) which was dissolved in a 0.1% BSA (bovine serum albumin)-containing physiological saline (content of the PTH is 6 μg/ml) was intravenously injected in an amount of 30 μg/kg (5 ml/kg as the solution) to 5-week male Wistar rats which had been fasting for 20 hours. Only 0.1% BSA-containing physiological saline was injected to the normal control group in the same manner. 45 minutes after the PTH injection, the rats were etherized and then subjected to celiotomy, whereby the blood was collected from the abdominal cava with a vacuum blood-collecting tube. The blood collected was immediately centrifuged by 3000 rpm, at 4° C. for 10 minutes to isolate the serum. The ionized calcium (Ca^++) concentration in the serum was immediately measured with a Ca^++ meter (Sera 250, manufactured by Horiba Manufacturing Co.).
The compounds of the present invention were dissolved using sodium hydroxide and hydrochloric acid, in physiological saline (pH 7.4), for subcutaneous administration, in such amounts that the dose amounted to 2 ml/kg, and for oral administration, in distilled water (pH 7.4) so that the dose amounted to 5 ml/kg. They were administered 24 or 72 hours before the PTH injection. A physiological saline or a distilled water was administered to the normal control group and the control group, in the same manner. Salmon calcitonin (SCT, manufactured by Armour Co.) was dissolved in physiological saline so that the dose amounted to 2 ml/kg, and then subcutaneously administered 30 minutes before the PTH injection.
The results for each group were expressed in terms of mean±S.E. (standard error) and comparison was made among the groups by testing by one-way analysis of variance. The significance level was taken at 5%.

Assay [2] concerns immobilization-induced atrophy of bone. The assay is described as follows: Inhibition of bone resorption: immobilization-induced (neurectomy) atrophy of bone in rats. Type of assay: in vivo, Wistar rats. The following applies: for Left humerus Ashed weight / Left humerus Ashed weight / Dry weight / Left humerus Dry weight: 2 weeks.
In a further assay the test system is adjuvant arthritis. The assay is described as follows: Experiment (3)-I: therapeutic effect on adjuvant arthritis in rats. The assay is classed as in vivo, male Lewis rats. To be noted: po. Here is the method: Specifically, for investigation of the anti-arthritic effect, experimental models of adjuvant arthritis which is resemble to rheumatoid arthritis in human were used in two test methods. In one method to test the therapeutic effect of the compounds, the compounds to be tested were administered to the animals already having the adjuvant arthritis. In the other method to test the prophylactic effect of the compounds, these were administered after the adjuvant administration, and the expression and progress of the resulting arthritis, if any, was observed.
0.1 ml of a suspension of dry dead cells of Mycobacterium butyricum as suspended in liquid paraffin in a proportion of 6 mg/ml was subcutaneously injected to male Lewis rats (7-week) in the tail. After 17 or 18 days, the thickness of the both hind paws was measured. One group comprising six rats in which the arthritis was noticeably observed was isolated. After the grouping day, the compound to be tested was subcutaneously or orally administered once a day for 14 days to the rats. Next day after the last administration, the thickness of the soles of the both hind legs was again measured.
For the Experiments (3)-I and (3)-II, the compounds of the present invention were dissolved, using sodium hydroxide and hydrochloric acid in physiological saline (pH 7.4), for subcutaneous administration, in such amount that the dose amounted to 2 ml/kg, and for oral administration, in distilled water (pH 7.4) so that the dose amounted to 5 ml/kg; and indometacin (as comparative drug) was suspended in 0.5% methyl cellulose solution so that the dose amounted to 5 ml/kg. Each rat was weighed at the first day of starting the administration of the compound to be tested and at the last day of the administration of the compound, and the difference of the weight there between (ΔB.W.) was obtained.
The results for each group were expressed in terms of mean ±S.E. (standard error) and comparison was made among the groups by testing by one-way analysis of variance. The significance level was taken at 5%.

Where [3] appears, read: sc, 0.1 mg/kg, 72 hours before PTH injection.
Setting [4] is: sc, 0.3 mg/kg, 72 hours before PTH injection.
[5] abbreviates: oral, 30 mg/kg, 72 hours before PTH injection.
Where [6] appears, read: oral, 100 mg/kg, 72 hours before PTH injection.
The mark [7] stands for this setting: sc, 30 mg/kg, 24 hours before PTH injection.
The mark [8] stands for this setting: sc, 0.01 mg/kg, 72 hours before PTH injection.
[9] abbreviates: sc, 0.03 mg/kg, 72 hours before PTH injection.
Setting [10] is: sc, 1.0 mg/kg, 72 hours before PTH injection.

The text below walks through data of patent US4973576A, “Bisphophonic acid derivatives and pharmaceutical compositions containing the same” (Yamanouchi Pharmaceutical Co., Ltd., priority 1987, dated 1990).

For the compound `CC(O)(P(=O)(O)O)P(=O)(O)O` [Etidronate, 1-hydroxyethylidene-1,1-bisphosphonic acid, reference compound], the “Serum Ca++” value in assay [1] (sc, 10 mg/kg, 72 hours before PTH injection) was 1.44 ± 0.01 m mole/liter; in assay [1] (sc, 30 mg/kg, 72 hours before PTH injection), 1.40 ± 0.01 m mole/liter.
For `O=P(O)(O)C(Nc1cc(C2CC2)on1)P(=O)(O)O` [Example 6, [(5-cyclopropyl-3-isoxazolyl)-amino]-methylene-bis(phosphonic acid)], the “Serum Ca++” value in assay [1] (setting [3]) is recorded as 1.42 ± 0.02 m mole/liter; in assay [1] (setting [4]), 1.25 ± 0.02 m mole/liter.
For the compound `CCCc1cc(NC(P(=O)(O)O)P(=O)(O)O)no1` [Example 8], the “Serum Ca++” value in assay [1] (setting [5]) is recorded as 1.48 ± 0.02 m mole/liter; in assay [1] (setting [6]), 1.35 ± 0.02 m mole/liter; in assay [1] (setting [3]), 1.41 ± 0.02 m mole/liter; in assay [1] (setting [4]) it was 1.27 ± 0.02 m mole/liter.
With `CC(=O)N(c1cc(C)on1)C(P(=O)(O)O)P(=O)(O)O` [Example 12, [N-acetyl(5-methyl-3-isoxazolyl)amino]methylene-bis(phosphonic acid)], in assay [1] (setting [7]), the “Serum Ca++” value is recorded as 1.44 ± 0.02 m mole/liter.
Regarding `CCOP(=O)(O)C(Nc1cc(C)on1)P(=O)(O)O` (stereo not shown) [Example 14, ethyl [(5-methyl-3-isoxazolyl)amino]methylene-bis(phosphonate)], the “Serum Ca++” value in assay [1] (setting [7]) is 1.45 ± 0.02 m mole/liter.
Take `CCCCCc1cc(NC(P(=O)(O)O)P(=O)(O)O)no1` [Example 21, [(5-n-pentyl-3-isoxazolyl)amino]methylene-bis(phosphonic acid)]: the “Serum Ca++” value in assay [1] (oral, 10 mg/kg, 72 hours before PTH injection) is given as 1.52 ± 0.02 m mole/liter; in assay [1] (setting [5]), 1.36 ± 0.06 m mole/liter; in assay [1] (setting [6]), 1.33 ± 0.04 m mole/liter; in assay [1] (setting [8]) it was 1.47 ± 0.02 m mole/liter; in assay [1] (setting [9]), 1.38 ± 0.01 m mole/liter; in assay [1] (setting [3]) it was 1.22 ± 0.003 m mole/liter. Also, the “Left humerus Ashed weight” value in assay [2] (oral, 3 mg/kg) was 64.4 ± 2.3 mg; in assay [2] (oral, 10 mg/kg) it was 67.0 ± 1.2 mg; in assay [2] (oral, 30 mg/kg), 65.7 ± 0.9 mg; in assay [2] (sc, 0.01 mg/kg), 65.7 ± 0.9 mg; in assay [2] (sc, 0.03 mg/kg) it was 73.6 ± 0.7 mg; in assay [2] (sc, 0.1 mg/kg), 72.8 ± 1.8 mg. The “Left humerus Ashed weight / Dry weight” value in assay [2] (oral, 3 mg/kg) amounted to 54.4 ± 0.2%; in assay [2] (oral, 10 mg/kg), 56.0 ± 0.4%; in assay [2] (oral, 30 mg/kg), 56.5 ± 0.2%; in assay [2] (sc, 0.01 mg/kg), 56.4 ± 0.2%; in assay [2] (sc, 0.03 mg/kg), 56.9 ± 0.2%; in assay [2] (sc, 0.1 mg/kg), 55.9 ± 0.4%. For the same compound, the “Left humerus Dry weight” value amounted to 113.0 ± 3.1 mg in assay [2] (oral, 3 mg/kg); 115.2 ± 4.0 mg in assay [2] (oral, 10 mg/kg); 118.7 ± 2.0 mg in assay [2] (oral, 30 mg/kg); 116.5 ± 1.5 mg in assay [2] (sc, 0.01 mg/kg); 129.2 ± 1.0 mg in assay [2] (sc, 0.03 mg/kg); 130.1 ± 3.2 mg in assay [2] (sc, 0.1 mg/kg). For the same compound, the “Thickness of Paw (average of right and left paws)” value in the assay on adjuvant arthritis (10 mg/kg once a day 14 days) came out at 1317 ± 35 × 0.01 mm; with adjuvant arthritis (30 mg/kg once a day 14 days), 1321 ± 35 × 0.01 mm; with adjuvant arthritis (100 mg/kg once a day 14 days) it was 1119 ± 52 × 0.01 mm. Moreover, the figures for the ΔB.W. in the assay with adjuvant arthritis (10 mg/kg once a day 14 days), in the assay with adjuvant arthritis (30 mg/kg once a day 14 days) and in the assay on adjuvant arthritis (100 mg/kg once a day 14 days) were 29.7 ± 1.1 g, 30.0 ± 1.1 g and 29.7 ± 4.5 g, respectively.
Consider `CCCCCCc1cc(NC(P(=O)(O)O)P(=O)(O)O)no1` [Example 22], for which the “Serum Ca++” value is 1.44 ± 0.02 m mole/liter in assay [1] (setting [5]); 1.28 ± 0.04 m mole/liter in assay [1] (setting [6]); 1.45 ± 0.01 m mole/liter in assay [1] (setting [8]); 1.35 ± 0.01 m mole/liter in assay [1] (setting [9]); 1.21 ± 0.02 m mole/liter in assay [1] (setting [3]).
Consider `CCCCCCCc1cc(NC(P(=O)(O)O)P(=O)(O)O)no1` [Example 23], for which the “Serum Ca++” value in assay [1] (setting [5]) was 1.49 ± 0.00 m mole/liter; in assay [1] (setting [6]) it was 1.41 ± 0.02 m mole/liter; in assay [1] (setting [9]), 1.40 ± 0.01 m mole/liter; in assay [1] (setting [3]) it was 1.33 ± 0.01 m mole/liter.
Consider `CC(C)CCc1cc(NC(P(=O)(O)O)P(=O)(O)O)no1` [Example 25], for which the “Serum Ca++” value in assay [1] (setting [3]) is 1.39 ± 0.02 m mole/liter; in assay [1] (setting [10]) it was 1.36 ± 0.02 m mole/liter.
As for `CCCCc1cc(NC(P(=O)(O)O)P(=O)(O)O)no1` [Example 28, [(5-n-butyl-3-isoxazolyl)amino]methylene-bis(phosphonic acid)], the “Serum Ca++” value is 1.46 ± 0.02 m mole/liter in assay [1] (setting [5]), 1.31 ± 0.04 m mole/liter in assay [1] (setting [6]), 1.36 ± 0.01 m mole/liter in assay [1] (setting [3]) and 1.18 ± 0.02 m mole/liter in assay [1] (setting [4]).
On to `CC(C)=CCCc1cc(NC(P(=O)(O)O)P(=O)(O)O)no1` [Example 31, [[5-(4-methyl-3-ene)pentyl-3-isoxazolyl]amino]methylene-bis(phosphonic acid)], for which the figures for the “Serum Ca++” value in assay [1] (setting [3]) and in assay [1] (setting [4]) were 1.20 ± 0.01 m mole/liter and 1.05 ± 0.03 m mole/liter, respectively.
Consider `O=P(O)(O)C(Nc1cc(/C=C/c2ccccc2)on1)P(=O)(O)O` [Example 32], for which the “Serum Ca++” value in assay [1] (setting [3]) was 1.41 ± 0.02 m mole/liter; in assay [1] (setting [4]) it was 1.27 ± 0.02 m mole/liter.
For the compound `CC(C)(C)c1cc(NC(P(=O)(O)O)P(=O)(O)O)no1` [Known Compound (note-1), [(5t-butyl-3-isoxazolyl)amino]methylenebis(phosphonic acid), reference compound], the “Serum Ca++” value in assay [1] (setting [4]) is 1.51 ± 0.03 m mole/liter; in assay [1] (setting [10]) it was 1.43 ± 0.02 m mole/liter.
As to `CC(C)c1cc(NC(P(=O)(O)O)P(=O)(O)O)no1` [Known Compound (note-2), [(5isopropyl-3-isoxazolyl)amino]methylenebis(phosphonic acid), reference compound], the entries for the “Serum Ca++” value in assay [1] (setting [3]), in assay [1] (setting [4]) and in assay [1] (setting [10]) were 1.58 ± 0.00 m mole/liter, 1.49 ± 0.01 m mole/liter and 1.39 ± 0.02 m mole/liter, respectively.
As for `CCc1cc(NC(P(=O)(O)O)P(=O)(O)O)no1` [Manufacture Example 2, [(5-ethyl-3-isoxazolyl)amino]methylene-bis(phosphonic acid)], the “Serum Ca++” value in assay [1] (setting [5]) is recorded as 1.46 ± 0.02 m mole/liter; in assay [1] (setting [6]), 1.16 ± 0.07 m mole/liter; in assay [1] (setting [3]), 1.39 ± 0.02 m mole/liter; in assay [1] (setting [4]) it was 1.22 ± 0.02 m mole/liter; in assay [1] (setting [7]) it was 1.41 ± 0.02 m mole/liter. Moreover, the “Difference of Bone Ash Content (b)” value in assay [2] (sc, 1.0 mg/kg once a day 14 days, nontreated minus treated humerus ashed weight) is given as 3.0 ± 0.7 mg. For the same compound, in assay [2] (sc, 1.0 mg/kg once a day 14 days, nontreated minus treated humerus dry weight), the “Difference of Bone Weight (a)” value is recorded as 4.8 ± 1.3 mg.
On to `Cc1conc1NC(P(=O)(O)O)P(=O)(O)O` [Manufacture Example 3, [(4-methyl-3-isoxazolyl)amino]methylene-bis(phosphonic acid)], for which the “Serum Ca++” value is on record as 1.45 ± 0.01 m mole/liter in assay [1] (setting [4]) and 1.23 ± 0.05 m mole/liter in assay [1] (setting [10]).
